Reference: paper PMC6591177, “Small Molecule IL-36γ Antagonist as a Novel Therapeutic Approach for Plaque Psoriasis” (Scientific Reports, 2019)
“Also recorded” adds a separate entry of the source.

Assays:
[1] = test system: human IL-36γ evoked CXCL1 release from Human HaCaT cells; assay: human IL-36γ evoked CXCL1 release, human HaCaT cells; format: cell-based; conditions: ± S.D.
Method: (§1) The immortalized human keratinocyte cell line HaCaT and mouse fibroblast NIH-3T3 cell line were maintained in culture in DMEM with 10% fetal bovine serum and 1% penicillin/streptomycin added (Sigma). Cells were seeded in 96-well tissue culture plates (Corning) at 25,000 cells per well and allowed to adhere and recover overnight at 37 °C in an incubator. Cells were rinsed with PBS (Sigma) and treated with cytokines diluted in 200 μL/well of the medium (DMEM with 0.5% FBS and 1% penicillin/streptomycin) as indicated. In inhibition mode, the agonist concentration used was at the EC80 for chemokine production and the cells were pre-treated with inhibitors for 30 min prior to adding the agonist. After 24 h of treatment, supernatants were collected and IL-8 and CXCL1[28] levels were assessed using a custom immunoassay (Meso Scale Discovery). EC50/IC50 values were estimated from a four-parameter logistic fit using Prism software (GraphPad).

human IL-36γ [2] = target: T1, human IL-36γ (Homo sapiens, UniProt Q9NZH8); assay: Thermal shift assay, human IL-36γ; format: binding; conditions: 100 μM compound; read-out: increase of melting temperature of human IL-36γ
T1 construct: His6-SUMO-human IL-36γ (18–169); His6-SUMO (N, cleaved yes); made in house; host or cells: E. coli BL21 (DE3)
T1 sequence (Q9NZH8 18-169): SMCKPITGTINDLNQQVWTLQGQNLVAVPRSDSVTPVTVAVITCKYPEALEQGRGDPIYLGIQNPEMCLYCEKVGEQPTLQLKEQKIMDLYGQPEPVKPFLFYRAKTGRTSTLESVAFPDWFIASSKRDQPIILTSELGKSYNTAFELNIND
Method: (§2) Thermal shift assays[30] were performed on a Roche LightCycler 480 instrument using Sypro Orange Dye (Invitrogen). Reactions consisted of 0.5–2 µM purified recombinant protein in PBS, pH 7.4, a 1/500 dilution of the stock Sypro Orange reagent, and 100 µM test compounds, resulting in a final DMSO concentration of 1%. The samples were heated from 20 °C to 95 °C at a rate of 0.25 °C per second.

[3] = test system: IL-36γ evoked CXCL1 release from Mouse NIH-3T3 cells; assay: IL-36γ evoked CXCL1 release, mouse NIH-3T3 cells; format: cell-based; conditions: for IC50: NIH-3T3 cells, n = 4, read-out: IC50 attenuation of CXCL1 release induced by human IL-36γ
Method: as §1

human IL-36γ [4] = target: T1, human IL-36γ; assay: Isothermal titration calorimetry; format: binding; conditions: 25 °C, pH 7.5; read-out: KD (ITC)
Method: All experiments were carried out on a MicroCal^TM Auto-ITC200 at 25 °C in 50 mM HEPES (pH = 7.5), 150 mM NaCl, 0.5 mM TCEP, 2% DMSO. IL-36γ protein solution was buffer exchanged by gel filtration into the isothermal titration calorimetry (ITC) buffer and diluted to 40 µM. The titrations were conducted using an initial injection of 0.2 µL followed by 19 identical injections of 2 µL of 400 µM compound solution. Thermodynamic parameters were calculated using ∆G = ∆H − T∆S = −RTlnKB, where ∆G, ∆H and ∆S are the changes in free energy, enthalpy and entropy of binding respectively. A single binding site model was employed.

human IL-36α = target: T2, human IL-36α (Homo sapiens, UniProt Q9UHA7); assay: Thermal shift assay / affinity, human IL-36α; format: binding; conditions: thermal shift assay at 100 μM (Supplementary Fig. 4)
T2 construct: using recombinant truncated proteins
T2 sequence (Q9UHA7 6-158): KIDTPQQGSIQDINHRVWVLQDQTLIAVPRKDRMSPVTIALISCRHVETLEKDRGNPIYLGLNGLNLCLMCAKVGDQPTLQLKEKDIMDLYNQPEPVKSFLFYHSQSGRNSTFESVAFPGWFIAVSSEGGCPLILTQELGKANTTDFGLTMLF
Method: as §2

[5] = test system: human IL-36γ induced plasma CXCL1; assay: hIL-36γ induced CXCL1 release in mouse plasma; format: in vivo; conditions: C57BL/6 mice, compounds 10, 30 and 100 mg/kg p.o.; antibody i.p.
From the text: Female C57BL/6 mice (9–10 weeks old, 19–23 g) were purchased from Charles River Laboratories. All animal procedures were approved by AbbVie’s Institutional Animal Care and Use Committee (IACUC) and performed in accordance with the relevant IACUC guidelines and regulations. To examine engagement of human IL-36γ with antagonists under in vivo conditions, a mouse acute CXCL1 release assay was established which was similar to one previously reported. Plasma CXCL1 secretion was induced by subcutaneous injection of 2 μg human IL-36γ (in 100 μL PBS) into C57BL/6 mice. Blood was withdrawn via cardiac puncture 2 h after the challenge with IL-36γ. A-552 and A-553 were dosed at 10, 30 and 100 mg/kg p.o. 45 min before IL-36γ challenge. Anti-IL36R antibodies were dosed i.p. at 24 hours before IL-36γ challenge. Plasma CXCL1 levels were analyzed using MSD V-PLEX kit.

[6] = test system: IL-1β evoked IL-8 release from HaCaT cells; assay: IL-1β evoked IL-8 release assay in HaCaT cells; format: cell-based, human; conditions: agonist mode, n = 3
Method: as §1
The IL-8 release assays were miniaturized for HTS hit follow-up. Frozen aliquots of HaCaT cells were thawed, added to complete media, mixed, spun down, resuspended in fresh media, and dispensed using the Multidrop384 into black, clear-bottom 384 well plates at a final density of 4000 cells/well. […] Cell viability was assessed using Cell Titer-Glo (Promega) according to the manufacturers’ instructions.

[7] = test system: 3D human skin equivalents; assay: IL-36γ induced 3D skin equivalent model; format: cell-based; conditions: 0.3 μg/mL hIL-36γ; 10 μM A-552, 10 μg/mL antibody or IL-36Ra; three days
Method: Hematoxylin & eosin (H&E) staining and immunohistochemistry (IHC) were performed using a Leica ST5010 autostainer or Leica Bond RX automated immunostainer. Standardized IHC protocols were used for anti-loricrin staining (Abcam AB85679). Stained tissue slides were digitized for image analysis using a Perkin Elmer P250 whole slide digital pathology slide scanner with 20X objective and extended focus scanning parameters. For quantitative analysis, N = 3 raft samples were analyzed per condition for each stain using whole slide digital analysis software (Indica Labs HALO). Staining was normalized to the length of the raft sample analyzed.
3D skin equivalents (SOR-300-FT-CTR) comprised of human neonatal keratinocytes and fibroblasts were purchased from MatTek, equilibrated for one day in proprietary formulated media (SOR-300-FT-CTR-MM) and then treated as indicated. Treatment groups contained hIL-36γ at 300 ng/mL, 10 μM of A-552, 10 μg/mL anti-IL36R antibody, 10 μg/mL IL-36RA, or 10 μg/mL IgG isotype control either alone or in combination with hIL-36γ. Control skin equivalents were treated with media only. Skin equivalents were treated for three days, with media collected for cytokine release studies at day two and replaced with fresh treatment media. After three days the skin equivalents were either placed in 10% neutral buffered formalin solution (for histology) or frozen (for qRT-PCR).
To measure IL-6, IL-8 and CXCL1 release from 3D skin equivalents diluted sample media collected at day 2 of the treatment (see above) was used in conjunction with V-PLEX multiplex immunoassay for IL-6 and IL-8 and a U-PLEX immunoassay for CXCL1 (Meso Scale Discovery) according to the manufacturers’ protocols.
RNA from frozen 3D skin equivalents was isolated using miRNeasy Mini Kit (Qiagen) per the manufacturers’ instructions. For qRT-PCR determination a CFX384 Real-Time System C1000 Touch Thermocycler was used. […] Each transcript measured was presented as a fold change compared to control using the ∆∆CT method as RNA fold increase where RPLP0 was used as a housekeeping gene.

[8] = target: T3, human IL-36R/IL-1RAcP extracellular domain (ECD) knob-in-hole Fc (human, UniProt Q9HB29 20-335; Q9NPH3 21-367); assay: AlphaScreen or HTRF; TR-FRET, competitive mode: unlabeled human IL-36γ or IL-36Ra titrated against 6 nM Alexa 488 human IL-36γ, receptor heterodimer 1.5 μg/mL, 6 nM Tb-anti-His antibody; Ki by the Cheng-Prusoff equation; conditions: both partners purified
T3 construct: human IL-36 receptor subunit (IL-36R), extracellular domain; human IL-1RAcP co-receptor subunit, extracellular domain; Both proteins were engineered with an Fc 'knob-in-hole' to force heterodimerisation; also called hIL-36R/IL-1RAcP ECD knob-in-hole Fc; human IL-36R/IL-1RAcP ECD Fc heterodimer; not shown: His tag (from the nickel column and the Tb-anti-His detection)
T3 sequence (looked up) 1: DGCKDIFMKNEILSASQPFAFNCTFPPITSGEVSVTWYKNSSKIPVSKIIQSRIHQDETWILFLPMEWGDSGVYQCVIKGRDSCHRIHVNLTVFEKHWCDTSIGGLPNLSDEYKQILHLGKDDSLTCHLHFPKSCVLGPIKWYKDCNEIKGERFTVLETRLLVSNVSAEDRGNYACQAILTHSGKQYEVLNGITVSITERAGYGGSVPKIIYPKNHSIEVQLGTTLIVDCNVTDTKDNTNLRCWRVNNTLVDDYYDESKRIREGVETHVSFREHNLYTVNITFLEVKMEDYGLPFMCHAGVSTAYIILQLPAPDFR
T3 sequence (looked up) 2: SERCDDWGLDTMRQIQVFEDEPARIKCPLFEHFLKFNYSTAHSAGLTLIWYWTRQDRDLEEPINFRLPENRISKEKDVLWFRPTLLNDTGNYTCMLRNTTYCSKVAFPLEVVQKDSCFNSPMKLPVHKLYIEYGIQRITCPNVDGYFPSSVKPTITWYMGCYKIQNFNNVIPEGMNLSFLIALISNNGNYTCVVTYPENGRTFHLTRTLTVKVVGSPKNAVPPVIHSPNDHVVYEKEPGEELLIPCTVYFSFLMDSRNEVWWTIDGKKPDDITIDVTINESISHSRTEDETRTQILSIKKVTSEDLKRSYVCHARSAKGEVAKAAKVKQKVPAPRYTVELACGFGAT

For `COC(c1ccccc1)(c1ccccc1)[C@@H](Oc1nc(C)cc(-c2ccc(C)c(N)c2)n1)C(=O)O` [Compound A-553], the Ki [1] was 3700 ± 2300 nM, the ΔTm at 100 µM (human IL-36γ [2]) was 1.3 °C and the Ki ([3]; human IL-36γ evoked CXCL1 release, ± S.D.) was 3700 ± 1700 nM. For the same molecule, the Kd (human IL-36γ [4]) was 3000 ± 330 nM, the “binding / affinity to human IL-36α” value (human IL-36α) was “do not bind” and the “effect on hIL-36γ induced plasma CXCL1 release (in words)” value [5] was “little effect; also recorded: no effect”.

In the case of “IL-1β: human IL-1β cytokine used in the selectivity assay”, the EC50 [6] is reported as 0.0057 ± 0.0038 nM.

B1: mouse IL-36Ra: mouse IL-36 receptor antagonist protein (protein, UniProt Q9QYY1 2-156, looked up)
Interleukin-36 receptor …: MVLSGALCFRMKDSALKVLYLHNNQLLAGGLHAEKVIKGEEISVVPNRALDASLSPVILGVQGGSQCLSCGTEKGPILKLEPVNIMELYLGAKESKSFTFYRRDMGLTSSFESAAYPGWFLCTSPEADQPVRLTQIPEDPAWDAPITDFYFQQCD
B1 was tested, and the IC50 [3] was 19 ± 9 nM.

B2: human IL-36Ra: recombinant soluble human IL-36 receptor antagonist (2–155) (protein)
chain: VLSGALCFRMKDSALKVLYLHNNQLLAGGLHAGKVIKGEEISVVPNRWLDASLSPVILGVQGGSQCLSCGVGQEPTLTLEPVNIMELYLGAKESKSFTFYRRDMGLTSSFESAAYPGWFLCTVPEADQPVRLTQLPENGGWNAPITDFYFQQCD
modifications: left off: His6, N-terminal, cleaved | SUMO, N-terminal, cleaved
B2 was tested, and the IC50 [3] was 23 ± 10 nM and the “effect on hIL-36γ induced changes in morphology, gene expression and cytokine production” value [7] was “fully attenuated”.

B3: human IL-36γ (18–169) (ligand, UniProt Q9NZH8 18-169, looked up)
chain: SMCKPITGTINDLNQQVWTLQGQNLVAVPRSDSVTPVTVAVITCKYPEALEQGRGDPIYLGIQNPEMCLYCEKVGEQPTLQLKEQKIMDLYGQPEPVKPFLFYRAKTGRTSTLESVAFPDWFIASSKRDQPIILTSELGKSYNTAFELNIND
notes: human IL-36γ, residues 18-169; also called hIL-36γ; unlabeled IL-36γ; source: E. coli BL21 (DE3), purified (nickel column, ULP1 cleavage, Superdex 75 gel filtration); not shown: His6, N-terminal, cleaved; SUMO, N-terminal, cleaved
For B3, the Ki [8] was 0.4 nM.
